# Test results as given in US4180559A, “Coated 1-(2-chlorodibenzo[b,f]oxepin-10-yl)-4-methylpiperazine compositions” (Richardson-Merrell Inc., priority 1978, dated 1979).
# “Also recorded” adds a separate entry of the source. Read-outs that look alike come from different tables or passages of the source.
# Tests used:
# [1] = Solubility of the compound in aqueous solutions and in 50% methanol-water at various pH; type: physicochemical
# From the text: On the other hand, if the drug is exposed to the relatively alkaline portions of the intestinal tract, i.e., a pH greater than 7.5, the drug remains undissolved and is unavailable for absorption in humans.
# [2] = Acid hydrolysis / half-life of the compound at various pH and temperature; type: physicochemical; details: for half-life: 50% methanol-water
# From the text: However, paradoxically, under the acidic conditions of maximum dissolution and absorption, the drug substance is itself the most labile from a chemical point of view. As previously indicated, the compound belongs to a class of enamines that are readily hydrolyzed under acidic aqueous conditions.
# [3] = Absorption into the bloodstream (general statement); details: uncoated drug; degradation at low pH in the stomach
# [4] = Anti-psychotic properties and liabilities (general statement)
structure (smiles),measurement,setting,value
"CN1CCN(C2=Cc3cc(Cl)ccc3Oc3ccccc32)CC1 [1-(2-Chlorodibenzo[b,f]oxepin-10-yl)-4-methylpiperazine]",solubility,"[1]; 50% methanol-water system, pH 8.0",totally insoluble
same,solubility,"[1]; aqueous solution, pH 1.0, read-out: solubility",20000 µg/mL
same,solubility,"[1]; aqueous solution, pH 3.0, read-out: solubility",15000 µg/mL
same,solubility,"[1]; aqueous solution, pH 4.3, read-out: solubility",4000 µg/mL
same,solubility,"[1]; aqueous solutions, pH greater than 7.5",insoluble
same,solubility,"[1]; organic solvent or mixture, 50% methanol-water system, pH 7.0, read-out: solubility",2000 µg/mL
same,half-life,"[2]; pH 1.5, 25° C., pH 1.5, 50% (v/v) methanol-water",0.005 days
same,half-life,"[2]; pH 1.5, 37° C., pH 1.5",0.005 days
same,half-life,"[2]; pH 6, 25° C., pH 6.0, 50% (v/v) methanol-water",11.2 days
same,half-life,"[2]; pH 6, 37° C., pH 6.0",6.62 days
same,acid lability,[2]; aqueous conditions,high degree of acid lability
same,absorption into the bloodstream,[3],poor and erratic absorption
same,anti-psychotic properties,[4],potent anti-psychotic properties; also recorded: particularly useful antipsychotic properties
same,cardiovascular liabilities,[4],minimal
same,extrapyramidal liabilities,[4],minimal
